What was measured:
[1] = system: LPS-induced serum TNF-α; test: Mouse LPS-induced serum TNF-α inhibition; assay type: in vivo; settings: po
Experimental: Compounds were tested in this animal model according to previously described methods (Corral et al., 1996, Mol. Med., 2:506-515). Mouse LPS-induced serum TNF-α inhibition (ED50, mg/kg, p.o.)=0.05 for Compound A.

[2] = system: PDE4 (from U937 cells); test: PDE4 (U937 cell-derived) enzyme assay; assay type: biochemical, human; settings: 1 μM cAMP
[3] = system: bovine PDE1; test: PDE1 enzyme assay; assay type: biochemical
[4] = molecular target: PDE5 from human platelets (Homo sapiens, UniProt O76074); test: PDE5 enzyme assay; assay type: biochemical
[5] = system: CD18 expression on neutrophils; test: fMLF-induced CD18 expression on neutrophils; assay type: cell-based; settings: Neutrophil; human neutrophils, 30 nM fMLF
Experimental: CD18/CD11b (Mac-1) expression on neutrophils was measured as previously described (Derian et al., 1995, J. Immunol., 154:308-3 17) with the following modifications. Neutrophils were isolated as described above, then resuspended in complete medium at 1×10^6 cells/ml, pretreated with compounds at 10, 1, 0.1, 0.01, and 0 μM in duplicate at a final DMSO concentration of 0.1% for 10 minutes at 37° C. 5% CO2. Cells were then stimulated with 30 nM fMLF for 30 minutes and then chilled to 4° C. Cells were treated with rabbit IgG (Jackson ImmunoResearch Labs, West Grove, Pa., USA) (10 μg/1×10^6 cells) to block Fc receptors, stained with CD18-FITC and CD11b-PE (Becton Dickinson), and analyzed by flow cytometry on a FACSCalibur. CD18/CD11b expression (mean fluorescence) in the absence of stimulation was subtracted from all samples to obtain inhibition curves and calculate IC50 values.

[6] = system: LPS-induced neutrophilia in the lungs of conscious ferrets; test: LPS-induced lung neutrophilia ferret model; assay type: in vivo; settings: Mustela putorius, po, read-out: Inhibition of LPS-induced neutrophilia (ED50)
[7] = system: severe plaque-type psoriasis; test: Phase 2 open-label pilot study in patients with severe plaque-type psoriasis
[8] = 20 mg orally daily for 29 days plus follow-up
[9] = 20 mg orally daily, 29 days, 17 evaluable
[10] = 20 mg orally daily, Day 29, 8 responders
[11] = 20 mg orally daily, Day 29, 19 enrolled
[12] = 20 mg orally daily, Day 29, of enrolled patients
[13] = Nonresponder, 20 mg orally daily

CCOc1cc(C(CS(C)(=O)=O)N2C(=O)c3cccc(NC(C)=O)c3C2=O)ccc1OC (single isomer, unassigned; (+)) [Compound A, (+)-2-[1-(3-ethoxy-4-methoxyphenyl)-2-methylsulfonylethyl]-4-acetylaminoisoindoline-1,3-dione]
ED50 [1]: 0.05 mg/kg
IC50 [2]: 73.5 nM
PDE1 (% inhib at 10 μM) ([3]; 10 μM): 23%
PDE Specificity Ratio PDE4/PDE1 ([3]; from Table 1 data): >500 fold
PDE Specificity Ratio PDE4/PDE5 ([4]; from Table 1 data): >30000 fold
inhibition at 10 µM ([4]; read-out: PDE5 (% inhib at 10 μM)): 3%
IC50 [5]: 390 nM
ED50 [6]: 0.8 mg/kg
patients with abnormal HLA-DR that had normal HLA-DR at Day 29 ([7]; 20 mg orally daily): Two
patients with abnormal ICAM-1 at baseline that had normal ICAM-1 at Day 29 ([7]; 20 mg orally daily): Three
patients with abnormal K16 at baseline that had normal K16 at Day 29 ([7]; 20 mg orally daily): one
patients with abnormal fillagrin at baseline that had normal fillagrin at Day 29 ([7]; 20 mg orally daily): three
treatment-related adverse event: headache ([7]; 20 mg orally daily for 29 days): 26.3%
treatment-related adverse event: nausea ([7]; 20 mg orally daily for 29 days): 15.8%
deaths [7, 8]: No deaths
premature discontinuation due to an adverse event [7, 8]: nor did any patient prematurely discontinue due to an adverse event
patients with evaluable biopsies demonstrating a 20% reduction in epidermal skin thickness ([7]; 20 mg orally daily for 29 days, Day 29, 15 evaluable): 53.3%
evaluable patients demonstrating improvement in static Physician's Global Assessment (sPGA) [7, 9]: 52.9%
evaluable patients showing a reduction from baseline in psoriasis body surface area (BSA) [7, 9]: 58.8%
mean reduction from baseline in dermal CD83+ cells in responders ([7]; 20 mg orally daily, Day 29): 25.86%
mean reduction from baseline in epidermal CD83+ cells in responders ([7]; 20 mg orally daily, Day 29): 32.50%
reduction of CD11c cells in the dermis in responders ([7]; 20 mg orally daily, Day 29): 18.50%
reduction of CD11c cells in the epidermis in responders ([7]; 20 mg orally daily, Day 29): 40.16%
decrease of dermal T-cells in responders [7, 10]: 28.79%
decrease of epidermal T-cells in responders [7, 10]: 42.56%
enrolled subjects demonstrating improvement in PASI [7, 11]: 73.7%
patients showing >50% reduction from baseline in total PASI score [7, 11]: 15.8%
mean reduction of epidermal thickness ([7]; 20 mg orally daily, Day 29, all 15 evaluable subjects, p=0.015): 20.5%
enrolled patients showing a reduction from baseline in psoriasis BSA [7, 12]: 52.6%
enrolled patients showing an improvement in sPGA [7, 12]: 47.4%
overall safety ([7]; 20 mg p.o. QD for 29 days): safe
Percentage Reduction at Day 29: CD11c, Dermis [7, 13]: −21.19%
Percentage Reduction at Day 29: CD11c, Epidermis [7, 13]: −2.54%
Percentage Reduction at Day 29: CD83+, Dermis [7, 13]: +0.46%
Percentage Reduction at Day 29: CD83+, Epidermis [7, 13]: −16.31%
Percentage Reduction at Day 29: T-cells, Dermis [7, 13]: −17.34%
Percentage Reduction at Day 29: T-cells, Epidermis [7, 13]: +8.74%
Percentage Reduction at Day 29: CD11c, Dermis ([7]; Responder, 20 mg orally daily): −18.50%
Percentage Reduction at Day 29: CD11c, Epidermis ([7]; Responder, 20 mg orally daily): −40.16%
Percentage Reduction at Day 29: CD83+, Dermis ([7]; Responder, 20 mg orally daily): −25.86%
Percentage Reduction at Day 29: CD83+, Epidermis ([7]; Responder, 20 mg orally daily): −32.50%
Percentage Reduction at Day 29: T-cells, Dermis ([7]; Responder, 20 mg orally daily): −28.79%
Percentage Reduction at Day 29: T-cells, Epidermis ([7]; Responder, 20 mg orally daily): −42.56%
reduction of mRNA expression of iNOS in lesional skin (RT-PCR) ([7]; after 29 days of treatment, 20 mg orally daily, p=0.025): 66.5%
